The values that follow are results of earlier work, collected in patent publication US20050064019A1, “Impregnated, flexible, rawhide pet chews containing antimicrobially active chlorhexdine” (priority 2003, published 2005).

The conditions of data set [1]: two years continuous use.
Data set [2] concerns fungal spores.
The test system of data set [3] is bacterial spores. To be noted: except at elevated temperatures.
For data set [4] the following is noted: rat, in vivo.

Take `[H]/N=C(\N/C(=N/[H])NCCCCCCNC(=N)NC(=N)Nc1ccc(Cl)cc1)Nc1ccc(Cl)cc1` [chlorhexidine]: the Solubility in water entry is given as “practically insoluble in water”. Moreover, in data set [1], the “Side effects in long term trials” value is given as “no systemic or serious local side effects”. In addition, the “Activity against fungal spores” value in data set [2] was “inactive”. Also, in data set [3], the “Activity against bacterial spores” value is “inactive”. The “Tolerance of chlorhexidine in drinking water” value in data set [4] is “without detectable interference with growth and reproduction”.
